Experimental data as given in ChEMBL document CHEMBL2413034, “Novel β-dicarbonyl derivatives as inhibitors of aminopeptidase N (APN)” (Bioorg Med Chem Lett, 2013).
Active and inactive are the calls of the source. No cut-off for these calls is given here.

Assays:
[1] = biological target: Histone deacetylase 1/3/5/8 (Homo sapiens, UniProt Q13547+O15379+Q9UQL6+Q9BY41); experiment: Inhibition of HDAC1/HDAC3/HDAC5/HDAC8 in human HeLa nuclear extract using Boc-Lys(acetyl)-AMC as substrate incubated for 5 mins prior to substrate measured after 30 mins by spectrophotometric analysis; assay type: protein assay
Aminopeptidase N = biological target: T1, Aminopeptidase N (Sus scrofa, UniProt P15145); experiment: Inhibition of pig microsomal aminopeptidase N using L-leu-p-nitroanilide as substrate incubated for 5 mins prior to substrate addition measured after 30 mins by spectrophotometric analysis
T1 sequence (P15145 whole entry): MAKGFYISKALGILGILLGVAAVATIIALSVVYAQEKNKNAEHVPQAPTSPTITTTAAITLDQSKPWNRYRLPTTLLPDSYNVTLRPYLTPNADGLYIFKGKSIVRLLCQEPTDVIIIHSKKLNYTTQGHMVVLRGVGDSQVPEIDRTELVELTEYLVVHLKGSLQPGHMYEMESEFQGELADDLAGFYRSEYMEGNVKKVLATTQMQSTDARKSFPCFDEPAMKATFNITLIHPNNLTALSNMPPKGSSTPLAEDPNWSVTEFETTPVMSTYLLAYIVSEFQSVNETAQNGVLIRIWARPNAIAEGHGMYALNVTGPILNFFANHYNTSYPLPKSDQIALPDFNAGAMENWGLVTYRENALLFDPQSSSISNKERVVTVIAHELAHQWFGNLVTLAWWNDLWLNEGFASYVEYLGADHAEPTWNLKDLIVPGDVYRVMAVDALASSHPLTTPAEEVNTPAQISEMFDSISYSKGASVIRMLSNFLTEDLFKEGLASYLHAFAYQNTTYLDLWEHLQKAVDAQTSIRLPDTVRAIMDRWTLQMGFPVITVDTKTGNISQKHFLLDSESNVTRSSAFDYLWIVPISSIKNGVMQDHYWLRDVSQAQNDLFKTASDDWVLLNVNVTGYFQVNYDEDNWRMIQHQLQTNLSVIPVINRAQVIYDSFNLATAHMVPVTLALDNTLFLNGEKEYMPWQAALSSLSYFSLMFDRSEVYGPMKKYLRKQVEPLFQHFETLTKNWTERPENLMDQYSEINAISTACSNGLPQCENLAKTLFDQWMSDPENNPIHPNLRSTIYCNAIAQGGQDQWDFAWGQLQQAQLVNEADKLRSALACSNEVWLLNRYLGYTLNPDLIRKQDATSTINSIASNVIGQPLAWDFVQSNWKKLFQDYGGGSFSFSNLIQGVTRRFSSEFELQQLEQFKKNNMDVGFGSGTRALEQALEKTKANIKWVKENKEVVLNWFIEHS

[2] = Metal chelating activity assessed as affinity to Zn2+ by spectrophotometry; assay type: functional

| IC50 [1] | IC50 (Aminopeptidase N) | SMILES | Activity [2] |
| --- | --- | --- | --- |
| > 1000 µM | > 1000 µM | COC(=O)[C@H](CC(C)C)NC(=O)CC(=O)[C@@H](Cc1ccccc1)NC(=O)OC(C)(C)C |  |
| > 1000 µM | 5.04 µM | COC(=O)[C@H](CC(C)C)NC(=O)CC(=O)[C@H](N)Cc1ccccc1 |  |
| > 1000 µM | 7.02 µM | COC(=O)[C@H](Cc1ccccc1)NC(=O)CC(=O)[C@H](N)Cc1ccccc1 |  |
| > 1000 µM | 3.82 µM | N[C@H](Cc1ccccc1)C(=O)CC(=O)N[C@H](C(=O)O)c1ccccc1 |  |
| > 1000 µM |  | CC(C)C[C@H](NC(=O)[C@@H](O)[C@H](N)Cc1ccccc1)C(=O)O [UBENIMEX] |  |
| > 1000 µM | > 1000 µM | COC(=O)[C@@H](NC(=O)CC(=O)[C@@H](Cc1ccccc1)NC(=O)OC(C)(C)C)c1ccccc1 |  |
| > 1000 µM | > 1000 µM | CC(C)(C)OC(=O)N[C@H](Cc1ccccc1)C(=O)CC(=O)OCc1ccccc1 |  |
| > 1000 µM | > 1000 µM | COC(=O)[C@H](Cc1ccccc1)NC(=O)CC(=O)[C@@H](Cc1ccccc1)NC(=O)OC(C)(C)C |  |
| > 1000 µM | 984 µM | COC(=O)CC(=O)[C@H](N)Cc1ccccc1 |  |
|  | 15.5 µM | COc1cc(/C=C/C(=O)CC(=O)/C=C/c2ccc(O)c(OC)c2)ccc1O [CURCUMIN] |  |
| > 1000 µM | > 1000 µM | COC(=O)CC(=O)[C@@H](Cc1ccccc1)NC(=O)OC(C)(C)C |  |
| > 1000 µM | 4.73 µM | N[C@H](Cc1ccccc1)C(=O)CC(=O)N[C@@H](Cc1ccccc1)C(=O)O |  |
| > 1000 µM | 711 µM | N[C@H](Cc1ccccc1)C(=O)CC(=O)OCc1ccccc1 |  |
| > 1000 µM | 6.03 µM | COC(=O)[C@@H](NC(=O)CC(=O)[C@H](N)Cc1ccccc1)c1ccccc1 |  |
| > 1000 µM | 1.41 µM | CC(C)C[C@H](NC(=O)CC(=O)[C@H](N)Cc1ccccc1)C(=O)O | Active |
